Measurements from patent US9676820B2, “Method for inhibiting proliferation of high LIX1L-expressing tumor cell, and tumor cell proliferation-inhibiting peptide” (National University Corporation Hamamatsu University School …, priority 2013, dated 2017).

Columns and labels:
Assay type in all cases: cell-based
HL-60 strain [1] = test: Viable cell counts (Trypan blue staining), HL-60 strain; conditions: 5 μM peptide, vs untreated
Method: (§1) Specifically, cells plated such that the density thereof became 1×10^4 cells/3.5 cm well for one plate (6 wells/plate) for each cell strain were cultured for one night in a culture solution having the same composition as those of the culture solutions described in the reference examples. After culturing of 1 well out of the 6 wells was completed, Trypan blue staining was performed on the 1 well, and viable cell counts were counted. The remaining 5 wells were cultured after exchanging the culture solution with a liquid mixture of a Lipofectamine (registered trademark) reagent (12.5 μL/well) and a culture solution (2 mL/well) of which the shRNA concentration became 2.5 μg/well. Then, Trypan blue staining was performed on 1 well 24 hours after the exchange of a culture medium, 1 well 48 hours after the exchange of a culture medium, and the remaining 1 well 72 hours after the exchange of a culture medium, and the viable cell counts were counted. As a control, the viable cell counts were measured (untreated) by performing the culturing similarly to the above except that a culture medium was exchanged with a culture solution to which no shRNA was added.
(§2) Specifically, the viable cell counts were measured after culturing the cells similarly to Example 1 except that a 5 μM culture solution containing a control peptide, a peptide 1, or a peptide 2 was used instead of the culture solution (2 mL/well) of which the shRNA concentration was 2.5 μg/well. The viable cell counts were measured (untreated) by performing the culturing similarly to Example 1 using a culture solution containing no peptide 2, as a control.

293 FLG/LIX1L [2] = test: Number of colonies formed, 293 FLG/LIX1L (Example 6); conditions: peptide 25 μM, cultured for 14 days
Method: Specifically, 293 FLG was plated in one plate (6 wells/plate) and 293 FLG/LIX1L was plated in two plates such that the density of the cells became 1×10^4 cells/3.5 cm well. Among these, one of the plates in which 293 FLG was plated and the plate in which 293 FLG/LIX1L was plated were cultured for 14 days in a 10% vol. % FCS-containing DMEM culture medium. The remaining one of the plates in which 293 FLG/LIX1L was plated was cultured for 14 days in a 10% vol. % FCS-containing DMEM culture medium in which the peptide 1 was made to be included such that the concentration thereof became 25 μM. Each of the wells after the culturing was observed under a microscope, and the number of colonies formed was measured.

OCUM-1 strain = test: MTT assay, OCUM-1 strain; conditions: MTT assay, 72 hours
Method: (§3) Specifically, first, cells plated in a 96-well microplate such that the density thereof became 5×10^3 cells/well were cultured for one night in a culture solution having the same composition as those in the reference examples. Thereafter, the culture solution was exchanged with 100 μL of a culture solution of which the concentration of peptides is 0 μM to 100 μM for culturing for 72 hours. After the culturing, an MTT-containing PBS solution was added to the culture solution, and the mixture was incubated for 4 hours. Then, formazan which was generated by putting 100 μL of isopropanol (containing 34 (v/v) % of hydrochloric acid) into each of the wells was dissolved. The absorbance of each of the wells of the microplate at 570 nm was measured using a microplate reader. As controls, culturing was performed in the same manner except that no peptide was added to the strains, an MTT assay was performed thereon, and the absorbance at 570 nm was measured (untreated).

K562 strain [3] = test: MTT assay, K562 strain
Method: as §3
(§4) Specifically, the cells were cultured for 72 hours similarly to Example 2 except that a peptide to be added to a cell strain was set to peptide 1, 3, or 4, or a control peptide, an MTT assay was performed thereon, and the absorbance at 570 nm was measured.
(§5) In the method for measuring the viable cell counts, cells were cultured for 3 days similarly to Example 1 except that a 25 μM (10 μM for an HL-60 strain, a K562 strain, and a U937 strain) culture solution containing a control peptide or a peptide 1 was used, and the viable cell counts were measured. As a comparison, culturing was performed similarly to the above using a culture solution containing no peptide, and the viable cell counts were measured (untreated).
(§6) In addition, in the method for performing an MTT assay, cells were cultured for 72 hours similarly to Example 2 except that a peptide to be added to a strain was set to a control peptide or a peptide 1 at 25 μM (10 μM for an HL-60 strain, a K562 strain, and a U937 strain), an MTT assay was performed thereon, and the absorbance at 570 nm was measured. As a comparison, culturing was performed similarly to the above using a culture solution containing no peptide, and the MTT assay was performed thereon (untreated).
(§7) Specifically, the cells were cultured for 72 hours similarly to Example 2 except that a peptide to be added to a cell was set to a peptide 1, 2, 5, or 6, MTT assays were performed thereon, and the absorbance at 570 nm was measured. As a comparison, culturing was performed similarly to the above using a culture solution containing no peptide, and the MTT assay was performed thereon (untreated).
as §7, with “that peptides” for “that a peptide”, “to” for “to a”, “cell strains were” for “cell was”, “to peptides 7 to 14,” for “to a peptide 1, 2, 5, or 6,”
Specifically, the cells were cultured for 72 hours similarly to Example 2 except that a peptide to be added to a cell strain was set to a peptide 15 or 16, an MTT assay was performed thereon, and the absorbance at 570 nm was measured. As a comparison, culturing was performed similarly to the above using a culture solution containing no peptide, and the MTT assay was performed thereon (untreated).

293 FLG/LIX1L [4] = test: MTT assay, 293 FLG/LIX1L cells
Method: as §3, with “Thereafter, the culture solution was exchanged with 100 μL of a culture solution of which the concentration of peptides is 0 μM to 100 μM for culturing for 72 hours.” left out
as §5, §6, §7
Specifically, the cells were cultured for 72 hours similarly to Example 2 except that peptides to be added to cell strains were set to peptides 7 to 14, MTT assays were performed thereon, and the absorbance at 570 nm was measured. […]
Specifically, the cells were cultured for 72 hours similarly to Example 2 except that a peptide to be added to a cell strain was set to a peptide 15 or 16, an MTT assay was performed thereon, and the absorbance at 570 nm was measured. […]

U937 strain = test: MTT assay, U937 strain
Method: as §3, §4, §5, §6

K562 strain [5] = test: Viable cell counts (Trypan blue staining), K562 strain; conditions: 5 μM peptide, vs untreated
Method: as §1, §2

HL-60 strain [6] = test: MTT assay, HL-60 strain
Method: as §3, §5, §6

[7] = 72 hours, peptide concentrations up to 250 μM
[8] = peptide 0 μM to 100 μM, 72 hours
[9] = peptide 10 μM, 3 days / 72 hours

CC(C)[C@H](NC(=O)[C@H](Cc1ccc(O)cc1)NC(=O)[C@H](CS)NC(=O)[C@@H](NC(=O)[C@H](Cc1ccc(O)cc1)NC(=O)[C@@H]1CCCN1C(=O)[C@@H]1CCCN1C(=O)[C@H](CO)NC(=O)[C@H](CC(N)=O)NC(=O)[C@H](CO)NC(=O)[C@@H]1CCCN1C(=O)CCCCCNC(=O)[C@H](CCCNC(=N)N)NC(=O)[C@H](CCCNC(=N)N)NC(=O)[C@H](CCCNC(=N)N)NC(=O)[C@H](CCC(N)=O)NC(=O)[C@H](CCCNC(=N)N)NC(=O)[C@H](CCCNC(=N)N)NC(=O)[C@H](CCCCN)NC(=O)[C@H](CCCCN)NC(=O)[C@H](CCCNC(=N)N)NC(=O)CNC(=O)[C@@H](N)Cc1ccc(O)cc1)C(C)C)C(N)=O [peptide 1, YGRKKRRQRRR-X-PSNSPPYVCYV-NH2]
very small: viable cell counts (HL-60 strain [1]; after 72 hours) | viable cell counts (K562 strain [5]; after 72 hours)
inhibited: number of colonies formed (293 FLG/LIX1L [2]) | cell proliferation (MTT assay, absorbance at 570 nm) (K562 strain [3]; [7]) | absorbance at 570 nm (MTT assay), influence on cell proliferation (K562 strain [3]; [8]) | cell proliferation (viable cell counts and MTT assay) (K562 strain [3]; [9]) | cell proliferation (MTT assay, absorbance at 570 nm) (293 FLG/LIX1L [4]; [7]) | cell proliferation (viable cell counts and MTT assay) (293 FLG/LIX1L [4]; peptide 25 μM, 3 days / 72 hours) | absorbance at 570 nm (MTT assay), cell proliferation (U937 strain; [8]) | cell proliferation (viable cell counts and MTT assay) (U937 strain; [9]) | cell proliferation (viable cell counts and MTT assay) (HL-60 strain [6]; [9])
decreased: viable cell counts (HL-60 strain [1]; after culturing for 24 hours) | viable cell counts (K562 strain [5]; after culturing for 24 hours)
greater than or equal to 6.25 μM: concentration at which a dominant effect of inhibiting the cell proliferation was recognized (OCUM-1 strain) | concentration at which a dominant effect of inhibiting the cell proliferation was recognized (K562 strain [3]; MTT assay, 72 hours) | concentration at which a dominant effect of inhibiting the cell proliferation was recognized (HL-60 strain [6]; MTT assay, 72 hours)
